Source: ChEMBL document CHEMBL5584253, “Polyfunctionalized organoselenides: New synthetic approach from selenium-containing cyanohydrins and anti-melanoma activity” (Bioorg Med Chem Lett, 2024)
Activity calls are given as the source filed them. The calls are words filed in the database; no cut-off is given here.

How the values were obtained:
BALB/3T3 [1] = experiment: Cytotoxicity against mouse BALB/3T3 cells assessed as reduction in cell viability at 10 to 50 ug/ml measured after 72 hrs by neutral red staining based analysis; assay type: toxicity; conditions: balb/3t3, 72 h, dose 10-50 µg/ml
BALB/3T3 [2] = experiment: Cytotoxicity against mouse BALB/3T3 cells assessed as reduction in cell viability at 10 to 50 ug/ml measured after 72 hrs by crystal violet staining based analysis; assay type: toxicity; conditions: balb/3t3, 72 h, dose 10-50 µg/ml
BALB/3T3 [3] = experiment: Cytotoxicity against mouse BALB/3T3 cells assessed as reduction in cell viability at 10 to 50 ug/ml measured after 72 hrs; assay type: toxicity, cell-based; conditions: balb/3t3, 72 h, dose 10-50 µg/ml
B16-F10 [4] = experiment: Antiproliferative activity against mouse B16-F10 cells assessed as reduction in cell number at 50 ug/ml measured after 72 hrs; assay type: functional, cell-based; conditions: dose 50.0 µg/ml
B16-F10 [5] = experiment: Antiproliferative activity against mouse B16-F10 cells assessed as reduction in cell viability at 50 ug/ml measured after 72 hrs by neutral red uptake assay; assay type: functional, cell-based; conditions: dose 50.0 µg/ml
BALB/3T3 [6] = experiment: Cytotoxicity against mouse BALB/3T3 cells assessed as reduction in cell viability at 50 ug/ml measured after 72 hrs; assay type: toxicity, cell-based; conditions: balb/3t3, 72 h, dose 50 µg/ml
B16-F10 [7] = experiment: Antiproliferative activity against mouse B16-F10 cells assessed as reduction in cell number at 10 to 50 ug/ml measured after 72 hrs; assay type: functional, cell-based; conditions: dose 10-50 µg/ml
B16-F10 [8] = experiment: Antiproliferative activity against mouse B16-F10 cells assessed as reduction in cell viability at 10 to 50 ug/ml measured after 72 hrs; assay type: functional, cell-based; conditions: dose 10-50 µg/ml

Compound | Activity (BALB/3T3 [1]) | Activity (BALB/3T3 [2]) | Activity (BALB/3T3 [3]) | other results
OCC(O)c1ccc([Se]c2ccccc2)cc1 (centres undefined) | Toxic | Toxic | – | –
CCCC[Se]c1ccc(C(O)C(=O)O)cc1 (centres undefined) | – | – | Non-Toxic | Activity (B16-F10 [4]): Active; Activity (B16-F10 [5]): Active
O=C(O)C(O)c1ccc([Se]c2ccccc2)cc1 (centres undefined) | – | – | Non-Toxic | Activity (BALB/3T3 [6]): Non-Toxic; Activity (B16-F10 [7]): Active
COC(=O)C(O)c1ccc([Se]c2ccccc2)cc1 (centres undefined) | Toxic | Toxic | – | –
COC(=O)C(OC(C)=O)c1ccc([Se]c2ccccc2)cc1 (centres undefined) | Toxic | Toxic | – | –
CCCC[Se]c1ccc(C(O)C(=O)OC)cc1 (centres undefined) | – | – | Non-Toxic | Activity (B16-F10 [8]): inactive
